Reference: PubChem BioAssay (NCI)
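Cultured in 96-well plates, cells were exposed to test compound for 48 hours across five concentrations. GI50: concentration for 50% inhibition of growth. The concentration for full growth arrest is given as TGI.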

Experiments:
Test in all cases: inhibition of tumour cell growth, NCI panel, 48 h
[1] = tested on: SNB-19 CNS
[2] = tested on: 786-0 renal
[3] = tested on: HCC-2998 colon
[4] = tested on: SK-MEL-2 melanoma
[5] = tested on: MOLT-4 leukemia
[6] = tested on: HCT-116 colon
[7] = tested on: HCT-15 colon
[8] = tested on: UO-31 renal
[9] = tested on: UACC-62 melanoma
[10] = tested on: SR leukemia
[11] = tested on: MCF7 breast
[12] = tested on: NCI/ADR-RES ovarian
[13] = tested on: T-47D breast
[14] = tested on: NCI-H23 lung
[15] = tested on: U251 CNS
[16] = tested on: NCI-H522 lung
[17] = tested on: SN12C renal
[18] = tested on: HOP-92 NSCLC
[19] = tested on: MALME-3M melanoma
[20] = tested on: PC-3 prostate
[21] = tested on: SW-620 colon
[22] = tested on: MDA-MB-435
[23] = tested on: SF-539 CNS
[24] = tested on: DU-145 prostate
[25] = tested on: RXF 393 renal
[26] = tested on: OVCAR-3 ovarian
[27] = tested on: UACC-257 melanoma
[28] = tested on: NCI-H460 lung
[29] = tested on: KM12 colon
[30] = tested on: ACHN renal
[31] = tested on: SF-268 CNS
[32] = tested on: SK-OV-3 ovarian
[33] = tested on: LOX IMVI melanoma
[34] = tested on: OVCAR-8 ovarian
[35] = tested on: IGROV1 ovarian
[36] = tested on: HT29 colon
[37] = tested on: HS 578T breast
[38] = tested on: M14 melanoma
[39] = tested on: SNB-75 CNS
[40] = tested on: K-562 leukemia
[41] = tested on: OVCAR-4 ovarian
[42] = tested on: MDA-MB-231 breast
[43] = tested on: HL-60(TB) leukemia
[44] = tested on: BT-549 breast
[45] = tested on: A498 renal
[46] = tested on: NCI-H226 lung
[47] = tested on: COLO 205 colon
[48] = tested on: CAKI-1 renal
[49] = tested on: OVCAR-5 ovarian
[50] = tested on: SF-295 CNS
[51] = tested on: A549 NSCLC
[52] = tested on: RPMI-8226 leukemia
[53] = tested on: EKVX NSCLC
[54] = tested on: SK-MEL-5 melanoma
[55] = tested on: TK-10 renal
[56] = tested on: SK-MEL-28 melanoma
[57] = tested on: CCRF-CEM leukemia
[58] = tested on: HOP-62 NSCLC

In the case of `CCO/C=N/C1=C(C#N)C(c2ccc(F)cc2)c2sc3c(C)cccc3c2O1` (stereo unspecified), the GI50 [1] is reported as 452 nM, the TGI [1] is reported as 16.5 µM and the GI50 [2] is reported as 614 nM. The TGI [2] was 12.9 µM, the GI50 [3] was 421 nM and the TGI [3] was 12.9 µM. The GI50 [4] was 726 nM, the TGI [4] was 20.7 µM and the GI50 [5] was 560 nM. For the same compound, the TGI [5] was 32.2 µM, the GI50 [6] was 375 nM and the TGI [6] was 10.4 µM. It also gave a GI50 [7] of 336 nM, a TGI [7] of 11.5 µM and a GI50 [8] of 572 nM. It also gave a TGI [8] of 15.9 µM, a GI50 [9] of 404 nM and a TGI [9] of 19.5 µM. The GI50 [10] was 524 nM, the TGI [10] was 60.1 µM and the GI50 [11] was 271 nM. It also gave a TGI [11] of 13.1 µM, a GI50 [12] of 220 nM and a TGI [12] of 12.7 µM. For the same compound, the GI50 [13] was 818 nM, the TGI [13] was 66.9 µM and the GI50 [14] was 517 nM. For the same compound, the TGI [14] was 14.7 µM, the GI50 [15] was 473 nM and the TGI [15] was 15.5 µM. It also gave a GI50 [16] of 214 nM, a TGI [16] of 11.7 µM and a GI50 [17] of 534 nM. For the same compound, the TGI [17] was 13.9 µM, the GI50 [18] was 624 nM and the TGI [18] was 8 µM. The GI50 [19] was 10.6 µM, the TGI [19] was 24.8 µM and the GI50 [20] was 386 nM. For the same compound, the TGI [20] was 14.8 µM, the GI50 [21] was 401 nM and the TGI [21] was 15.8 µM. The GI50 [22] was 178 nM, the TGI [22] was 609 nM and the GI50 [23] was 243 nM. It also gave a TGI [23] of 1540 nM, a GI50 [24] of 434 nM and a TGI [24] of 14.2 µM. The GI50 [25] was 175 nM, the TGI [25] was 550 nM and the GI50 [26] was 379 nM. For the same compound, the TGI [26] was 11.9 µM, the GI50 [27] was 12.9 µM and the TGI [27] was 35.6 µM. For the same compound, the GI50 [28] was 367 nM, the TGI [28] was 11.1 µM and the GI50 [29] was 389 nM. For the same compound, the TGI [29] was 14.7 µM, the GI50 [30] was 616 nM and the TGI [30] was 14.6 µM. It also gave a GI50 [31] of 1740 nM, a TGI [31] of 17.3 µM and a GI50 [32] of 834 nM. For the same compound, the TGI [32] was 25.5 µM, the GI50 [33] was 626 nM and the TGI [33] was 14.1 µM. The GI50 [34] was 499 nM, the TGI [34] was 20.3 µM and the GI50 [35] was 379 nM. The TGI [35] was 14.9 µM, the GI50 [36] was 389 nM and the TGI [36] was 12.6 µM. For the same compound, the GI50 [37] was 325 nM, the TGI [37] was 14.8 µM and the GI50 [38] was 316 nM. For the same compound, the TGI [38] was 12.2 µM, the GI50 [39] was 114 nM and the TGI [39] was 2640 nM. For the same compound, the GI50 [40] was 281 nM, the TGI [40] was > 62.1 µM and the GI50 [41] was 1700 nM. For the same compound, the TGI [41] was 24.8 µM, the GI50 [42] was 531 nM and the TGI [42] was 17.6 µM. For the same compound, the GI50 [43] was 340 nM, the TGI [43] was 12.9 µM and the GI50 [44] was 751 nM. It also gave a TGI [44] of 5.63 µM, a GI50 [45] of 261 nM and a TGI [45] of 1480 nM. It also gave a GI50 [46] of 1290 nM, a TGI [46] of 12.1 µM and a GI50 [47] of 401 nM. For the same compound, the TGI [47] was 2250 nM, the GI50 [48] was 386 nM and the TGI [48] was 17.2 µM. It also gave a GI50 [49] of 574 nM, a TGI [49] of 16.4 µM and a GI50 [50] of 250 nM. It also gave a TGI [50] of 2800 nM, a GI50 [51] of 458 nM and a TGI [51] of 18.7 µM. For the same compound, the GI50 [52] was 371 nM, the TGI [52] was 11 µM and the GI50 [53] was 383 nM. For the same compound, the TGI [53] was 18.3 µM, the GI50 [54] was 487 nM and the TGI [54] was 2530 nM. For the same compound, the GI50 [55] was 11.8 µM, the TGI [55] was 27.5 µM and the GI50 [56] was 1400 nM. For the same compound, the TGI [56] was 20.6 µM, the GI50 [57] was 359 nM and the TGI [57] was 21.3 µM. It also gave a GI50 [58] of 423 nM and a TGI [58] of 15.8 µM.
